# In ChEMBL document CHEMBL4390669, “C-6α- vs C-7α-Substituted Steroidal Aromatase Inhibitors: Which Is Better? Synthesis, Biochemical Evaluation, Docking Studies, and Structure-Activity Relationships” (J Med Chem, 2019):
# Activity calls are given as the source filed them. The rule behind the calls is not given here.
# Columns and labels:
# Aromatase [1] = biological target: T1, Aromatase (Homo sapiens, UniProt P11511); test: Inhibition of […] aromatase expressed in human MCF7 cells at 10 uM using [1beta3H]-androstenedione as substrate measured after 1 hr in presence of progesterone relative to control
# T1 sequence (P11511 whole entry): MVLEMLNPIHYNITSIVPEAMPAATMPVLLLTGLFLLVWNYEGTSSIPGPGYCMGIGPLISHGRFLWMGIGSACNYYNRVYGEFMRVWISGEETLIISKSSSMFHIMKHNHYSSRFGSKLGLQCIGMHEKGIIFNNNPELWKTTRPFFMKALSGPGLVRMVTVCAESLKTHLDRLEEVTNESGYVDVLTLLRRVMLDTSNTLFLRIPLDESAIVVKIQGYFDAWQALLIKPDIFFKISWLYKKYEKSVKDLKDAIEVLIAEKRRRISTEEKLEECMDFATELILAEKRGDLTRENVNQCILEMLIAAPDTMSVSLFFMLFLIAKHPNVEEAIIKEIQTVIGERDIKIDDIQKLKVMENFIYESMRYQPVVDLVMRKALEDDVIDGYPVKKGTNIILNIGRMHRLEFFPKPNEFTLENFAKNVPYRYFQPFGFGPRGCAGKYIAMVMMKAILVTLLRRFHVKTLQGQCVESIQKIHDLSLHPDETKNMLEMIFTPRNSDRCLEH
# Aromatase [2] = biological target: T1, Aromatase; test: Inhibition of human placental microsome aromatase at 2 uM using [1beta3H]-androstenedione as substrate measured after 15 mins in presence of NADPH by liquid scintillation counting method relative to control; format: microsomes, Placenta; details: 0.25 h
# Aromatase [3] = biological target: T1, Aromatase; test: Inhibition of human placental microsome aromatase using [1beta3H]-androstenedione as substrate measured after 15 mins in presence of NADPH by liquid scintillation counting method; format: microsomes, Placenta; details: for inhibition (INH): human, microsomes, 0.25 h
# MCF7 = test: Induction of crystal formation in human MCF7 cells transfected with human placental microsome aromatase at 10 uM measured after 1 hr; format: functional, cell-based
# Aromatase [4] = biological target: T1, Aromatase; test: Competitive irreversible inhibition of human placental microsome aromatase using varying levels of [1beta3H]-androstenedione as substrate measured after 5 mins in presence of NADPH by Lineweaver-burk plot analysis; parameters: species or system Placenta; details: microsomes
# Aromatase [5] = biological target: T1, Aromatase; test: Ratio of Km to Ki for human placental microsome aromatase using varying levels of [1beta3H]-androstenedione as substrate measured after 5 mins in presence of NADPH by Dixon-plot analysis; parameters: species or system Placenta; details: microsomes
# Aromatase [6] = biological target: T1, Aromatase; test: Competitive reversible inhibition of human placental microsome aromatase assessed as substrate Vmax per ug protein using varying levels of [1beta3H]-androstenedione as substrate measured after 5 mins in presence of NADPH by Dixon-plot analysis; parameters: species or system Placenta; details: microsomes
# Aromatase [7] = biological target: T1, Aromatase; test: Competitive reversible inhibition of human placental microsome aromatase using varying levels of [1beta3H]-androstenedione as substrate measured after 5 mins in presence of NADPH by Lineweaver-burk plot analysis; parameters: species or system Placenta; details: microsomes
# Aromatase [8] = biological target: T1, Aromatase; test: Competitive irreversible inhibition of human placental microsome aromatase using varying levels of [1beta3H]-androstenedione as substrate measured after 5 mins in presence of NADPH by Dixon-plot analysis; format: microsomes, Placenta; details: read-out: Ki(app)
# Aromatase [9] = biological target: T1, Aromatase; test: Competitive reversible inhibition of human placental microsome aromatase using varying levels of [1beta3H]-androstenedione as substrate measured after 5 mins in presence of NADPH by Dixon-plot analysis; format: microsomes, Placenta; details: read-out: Ki(app)
smiles,measurement,setting,value
C=CC[C@@H]1CC2=CC(=O)CC[C@]2(C)[C@H]2CC[C@]3(C)C(=O)CC[C@H]3[C@H]12,inhibition at 10 µM,Aromatase [1],92.6%
C[C@@H]1C[C@@H]2[C@H]3O[C@H]3CC[C@]2(C)[C@H]2CC[C@]3(C)C(=O)CC[C@H]3[C@H]12,inhibition at 2 µM,Aromatase [2],13.7%
C[C@@H]1C[C@@]23O[C@@H]2CCC[C@]3(C)[C@H]2CC[C@]3(C)C(=O)CC[C@H]3[C@H]12,inhibition at 2 µM,Aromatase [2],64.9%
C=CC[C@H]1C[C@@H]2[C@H](CC[C@]3(C)C(=O)CC[C@@H]23)[C@@]2(C)CCC(=O)C=C12,inhibition at 2 µM,Aromatase [2],97.2%
same,IC50,Aromatase [3],105 nM
same,inhibition (INH),Aromatase [3],Dose-dependent effect
same,inhibition at 10 µM,Aromatase [1],96.5%
C[C@H]1C[C@@H]2[C@H](CC[C@]3(C)C(=O)CC[C@@H]23)[C@@]2(C)CCCC=C12,inhibition at 2 µM,Aromatase [2],96.7%
same,Activity,MCF7,Active
same,IC50,Aromatase [3],170 nM
C[C@]12CCC(=O)C=C1[C@@H](O)C[C@@H]1[C@@H]2CC[C@]2(C)C(=O)CC[C@@H]12,inhibition at 2 µM,Aromatase [2],90.7%
same,IC50,Aromatase [3],880 nM
same,inhibition at 10 µM,Aromatase [1],88.4%
C=CC[C@H]1C[C@@H]2[C@H](CC[C@]3(C)C(=O)CC[C@@H]23)[C@@]2(C)C=CC(=O)C=C12,inhibition at 2 µM,Aromatase [2],97.6%
same,inhibition (INH),Aromatase [4],Active
same,IC50,Aromatase [3],55 nM
same,inhibition (INH),Aromatase [3],Dose-dependent effect
same,inhibition at 10 µM,Aromatase [1],99.2%
same,Ratio,Aromatase [5],2.81
C=CC[C@H]1C[C@@H]2[C@H](CC[C@]3(C)C(=O)CC[C@@H]23)[C@@]2(C)CCCC=C12,inhibition at 2 µM,Aromatase [2],92.4%
same,IC50,Aromatase [3],210 nM
same,inhibition at 10 µM,Aromatase [1],84.1%
C=CC[C@@H]1CC2=CC(=O)C=C[C@]2(C)[C@H]2CC[C@]3(C)C(=O)CC[C@H]3[C@H]12,inhibition at 10 µM,Aromatase [1],96.3%
C[C@]12CCC(=O)C=C1C[C@@H](O)[C@@H]1[C@@H]2CC[C@]2(C)C(=O)CC[C@@H]12,inhibition at 2 µM,Aromatase [2],49.8%
C[C@H]1C[C@@H]2[C@H](CC[C@]3(C)C(=O)CC[C@@H]23)[C@@]2(C)CC[C@H]3O[C@H]3[C@H]12,inhibition at 2 µM,Aromatase [2],96.7%
same,IC50,Aromatase [3],175 nM
same,inhibition at 10 µM,Aromatase [1],84.2%
C[C@H]1C[C@H]2[C@@H]3CCC(=O)[C@@]3(C)CC[C@@H]2[C@@]2(C)CCC[C@H]3O[C@]132,inhibition at 2 µM,Aromatase [2],58.7%
C[C@H]1C[C@@H]2[C@H](CC[C@]3(C)C(=O)CC[C@@H]23)[C@@]2(C)CCC(=O)C=C12,inhibition at 2 µM,Aromatase [2],98.7%
same,Vmax,Aromatase [6],0.0191 nmol/min
same,inhibition (INH),Aromatase [7],Active
same,IC50,Aromatase [3],60 nM
same,inhibition (INH),Aromatase [3],Dose-dependent effect
same,inhibition at 10 µM,Aromatase [1],98.6%
same,Ratio,Aromatase [5],2.53
same,Ki,Aromatase [8],22.5 nM
same,Ki,Aromatase [9],25 nM
C[C@]12CCC(=O)C(O)=C1CC[C@@H]1[C@@H]2CC[C@]2(C)C(=O)CC[C@@H]12 [FORMESTANE],inhibition at 2 µM,Aromatase [2],99.2%
same,inhibition at 10 µM,Aromatase [1],97.1%
C=CC[C@@H]1CC2=C(O)C(=O)CC[C@]2(C)[C@H]2CC[C@]3(C)C(=O)CC[C@H]3[C@H]12,inhibition at 2 µM,Aromatase [2],91.8%
same,Activity,MCF7,Active
same,IC50,Aromatase [3],110 nM
same,inhibition (INH),Aromatase [3],Dose-dependent effect
C=CC[C@@H]1CC2=CCCC[C@]2(C)[C@H]2CC[C@]3(C)C(=O)CC[C@H]3[C@H]12,inhibition at 10 µM,Aromatase [1],74.7%
C[C@@H]1CC2=CC(=O)CC[C@]2(C)[C@H]2CC[C@]3(C)C(=O)CC[C@H]3[C@H]12,inhibition at 2 µM,Aromatase [2],94.3%
same,IC50,Aromatase [3],270 nM
same,inhibition at 10 µM,Aromatase [1],90.8%
C[C@H]1C[C@@H]2[C@H](CC[C@]3(C)C(=O)CC[C@@H]23)[C@@]2(C)CCC=C[C@H]12,inhibition at 2 µM,Aromatase [2],93.5%
same,IC50,Aromatase [3],560 nM
same,inhibition at 10 µM,Aromatase [1],88.7%
C=CC[C@H]1C[C@@H]2[C@H](CC[C@]3(C)C(=O)CC[C@@H]23)[C@@]2(C)CCC(=O)C(O)=C12,inhibition at 2 µM,Aromatase [2],90.1%
same,IC50,Aromatase [3],520 nM
same,inhibition at 10 µM,Aromatase [1],80.7%
C[C@]12CCC(=O)C=C1[C@H](O)C[C@@H]1[C@@H]2CC[C@]2(C)C(=O)CC[C@@H]12,inhibition at 2 µM,Aromatase [2],88.6%
same,IC50,Aromatase [3],840 nM
same,inhibition at 10 µM,Aromatase [1],88.2%
C[C@H]1C[C@H]2[C@@H]3CCC(=O)[C@@]3(C)CC[C@@H]2[C@@]2(C)CCC[C@@H]3O[C@]312,inhibition at 2 µM,Aromatase [2],76.2%
C[C@@H]1CC2=CCCC[C@]2(C)[C@H]2CC[C@]3(C)C(=O)CC[C@H]3[C@H]12,inhibition at 2 µM,Aromatase [2],97.4%
same,IC50,Aromatase [3],405 nM
same,inhibition at 10 µM,Aromatase [1],89.5%
